# Results published in patent US10434086B2, “Combination therapies with curaxins” (Incuron, Inc., priority 2014, dated 2019).
# Read-outs that look alike come from different tables or passages of the source.
# How the values were obtained:
# [1] = test system: HepG2 hepatocellular carcinoma tumors; assay: HepG2 study: CBL0137/sorafenib against HepG2 HCC tumor engrafts; assay type: in vivo, nude mice
# From the text: (§1) Seventy and sixty female athymic nude mice were obtained for each H1975 Non-Small Cell Lung Cancer Xenograft study and split into treatment groups consisting of 10 animals per group (2 cages of 5 mice per cage).
# (§2) Preparation and subcutaneous implantation of tumor pieces: HepG2 tumors (passage 2 for HepG2 study and passage 1 for HepG2 (sub-dose CLB0137) study) or Hep3B tumors (passage 1 for Hep3B study and passage 9 for Hep3B (sub-dose CLB0137) study) were propagated in athymic nude mice and harvested from euthanized mice when they reached ˜500-900 mm^3. PDA tumors (passage 6) were propagated in SCID mice (both flanks) and harvested from euthanized mice when they reached ˜600-700 mm^3 in size. Harvested tumors were transferred to a sterile Petri dish containing RPMI-10% FBS medium or D-PBS plus penicillin/streptomycin. Enough media was added to bathe the tumor in order to ensure the viability of the transplant material. Tumors were dissected into 2 mm×2 mm cubes using a sterile scalpel. Care was taken to make the pieces as uniform in size and shape as possible. Tumor pieces were implanted into recipient mice immediately after being prepared.
# (§3) Tumor Size Measurements: Tumor size was measured by digital caliper in two dimensions (in mm): maximum length (l) and maximum width (w) taken perpendicular to one another. The measurements were used to calculate tumor volume according to the formula: tumor volume=(l×w2)/2 (w<l). The value obtained by this formula is also equal to the mass of the tumor in mg. Starting 2 days after tumor implantation, tumor measurements were made every 2-3 days prior to treatment initiation and then twice per week (e.g., on Day 1 (D1, the day of treatment initiation), D4, D8, D11, D15, D18, D22, D25, D29, D32, D36, D39, D43, D46, D50, D53 and D57). Tumor measurements were collected more frequently when tumor size approached the tumor size endpoint in order to prevent passing the endpoint between scheduled measurements.
# (§4) Administration of test and control articles: Mice were administered the designated solutions when the mean tumor volume per treatment group was ˜45-200 mm^3.
# (§5) The volume of the dosing solution administered orally or intravenously was 8 ml/kg of body weight, Intravenous injections were performed via the tail vein. Administration of drugs was done slowly without force on the syringe.
# (§6) Monitoring and Sample Collection: Twice daily, mice were monitored for mortality and morbidity for the duration of the experiment. […] All abnormal observations were documented and semi-quantitative scores were assigned for “body condition,” “posture,” and “activity.” Scores of 4, 3, 2, and 1 were assigned to normal conditions (4), and slightly (3), moderately (2) and severely (1) abnormal conditions, respectively. Cages were taken to a laminar flow hood and opened in order to clearly assess mouse activity.
# Data analysis: For all study groups, maximum tumor growth inhibition was calculated for Day 11, 13, or 15 (Day X). […] For each tumor, relative tumor size was calculated relative to its size on Day 1 when treatment was initiated (i.e., fold tumor growth). To calculate the maximum tumor growth inhibition for each tumor, the following equation was used: 100−(fold tumor growth drug-treated Day X/mean fold tumor growth vehicle-treated Day X)*100. Differences in tumor sizes between groups were determined using ANOVA analysis (GraphPad Prism 5 Software) where “*” refers to P=0.01-0.05 (significant), “**” refers to P=0.001-0.01 (very significant) and “***” refers to P<0.001 (extremely significant), Differences that were not statistically significant are indicated with “ns”.
# [2] = test system: NF-κB target genes (IL-8 and TNF); assay: Real-time PCR of NF-κB target genes (IL-8 and TNF) in HepG2 and Hep3B; assay type: cell-based; conditions: 2 h after exposure; basal and TNF-induced; both HCC cell lines
# [3] = test system: HepG2 and Hep3B; conditions: HepG2 only (Hep3B is p53 null)
# From the text: Specifically, the Western blots monitored expression of spt16, SSRP1, p53, p21, P-ERK, ERK, Mcl-1, and GAPDH (control). Panel A corresponds to the tumor-bearing nude mice from the HepG2 study whereas Panel B corresponds to the tumor-bearing nude mice from the Hep3B study.
# Specifically, the Western blots monitored the effect of drug treatment on expression of spt16, SSRP1, p53, p21, P-ERK, ERK, Mcl-1, and GAPDH (control) proteins, of which most are involved in cell cycle progression and regulation.
# [4] = test system: Hep3B hepatocellular carcinoma tumors; assay: Hep3B (sub-dose CBL0137) study; assay type: in vivo, nude mice
# From the text: as §1, §2
# Tumor Size Measurements: Tumor size was measured by digital caliper in two dimensions (in mm): maximum length (l) and maximum width (w) taken perpendicular to one another. The measurements were used to calculate tumor volume according to the formula: tumor volume=(l×w2)/2 (w<l). The value obtained by this formula is also equal to the mass of the tumor in mg. […]
# (§7) Monitoring and Sample Collection: Twice daily, mice were monitored for mortality and morbidity for the duration of the experiment. […] All abnormal observations were documented and semi-quantitative scores were assigned for “body condition,” “posture,” and “activity.” Scores of 4, 3, 2, and 1 were assigned to normal conditions (4), and slightly (3), moderately (2) and severely (1) abnormal conditions, respectively. […]
# (§8) Data analysis: For all study groups, maximum tumor growth inhibition was calculated for Day 11, 13, or 15 (Day X). […] For each tumor, relative tumor size was calculated relative to its size on Day 1 when treatment was initiated (i.e., fold tumor growth). […] Differences in tumor sizes between groups were determined using ANOVA analysis (GraphPad Prism 5 Software) where “*” refers to P=0.01-0.05 (significant), “**” refers to P=0.001-0.01 (very significant) and “***” refers to P<0.001 (extremely significant), Differences that were not statistically significant are indicated with “ns”. […] Tumor growth delay (T−C) was calculated by subtracting the median time for the control to reach the 1000 mm^3 size endpoint from that of the median time for the treated groups to reach the size endpoint.
# [5] = test system: Hep3B hepatocellular carcinoma tumors; assay type: in vivo, nude mice
# From the text: as §1, §2, §3, §4
# The volume of the dosing solution administered orally or intravenously was 8 ml/kg of body weight, Intravenous injections were performed via the tail vein. […]
# as §7, §8
# [6] = test system: HepG2 hepatocellular carcinoma tumors; assay: HepG2 (sub-dose CBL0137) study; assay type: in vivo, nude mice
# From the text: as §1, §2, §3, §4, §5, §6
# Data analysis: For all study groups, maximum tumor growth inhibition was calculated for Day 11, 13, or 15 (Day X). […] For each tumor, relative tumor size was calculated relative to its size on Day 1 when treatment was initiated (i.e., fold tumor growth). To calculate the maximum tumor growth inhibition for each tumor, the following equation was used: 100−(fold tumor growth drug-treated Day X/mean fold tumor growth vehicle-treated Day X)*100. Differences in tumor sizes between groups were determined using ANOVA analysis (GraphPad Prism 5 Software) where “*” refers to P=0.01-0.05 (significant), “**” refers to P=0.001-0.01 (very significant) and “***” refers to P<0.001 (extremely significant), Differences that were not statistically significant are indicated with “ns”. […] Tumor growth delay (T−C) was calculated by subtracting the median time for the control to reach the 1000 mm^3 size endpoint from that of the median time for the treated groups to reach the size endpoint.
# [7] = median time to reach tumor size endpoint, treated minus control
smiles,measurement,setting,value
CNC(=O)c1cc(Oc2ccc(NC(=O)Nc3ccc(Cl)c(C(F)(F)F)c3)cc2)ccn1 [sorafenib],T/C %,"[1]; Day 15, sorafenib 15 mg/kg po daily, CBL0137 70 mg/kg iv Q4d",72.6%
same,mean change in tumor volume versus Day 1,"[1]; Day 15, sorafenib 15 mg/kg po daily, CBL0137 70 mg/kg iv Q4d, vehicle 9.0-fold",8.4 fold
same,antitumor efficacy (in words),[1]; HepG2 study summary,had no effect against HepG2 tumor growth
same,median survival time (MST),"[1]; HepG2 study, sorafenib 15 mg/kg po daily, CBL0137 70 mg/kg iv Q4d, 4 weeks, vehicle 15 days",15 days
same,Tumor growth delay (T−C),[1]; [7],5.65 days
same,tumors that grew showing some degree of regression during the course of treatment,"[1]; sorafenib 15 mg/kg po daily, CBL0137 70 mg/kg iv Q4d, vehicle 0/16",0/14
same,expression of NF-κB target genes (IL-8 and TNF),[2],"have an effect on expression of NF-κB target genes, albeit less than CBL0137"
same,induction of p53 and p21 by CBL0137 (Western blot),[3],blocked this induction
same,mean change in tumor volume versus Day 1,"[4]; Day 15, vehicle 21.0-fold",10.2 fold
same,tumor growth inhibition,[4]; between Days 1 and 15,51.4%
same,antitumor efficacy (in words),"[4]; dT, time to endpoint, growth delay, T/C %",stronger beneficial effect
same,median survival time (MST),"[4]; sorafenib 30 mg/kg po daily, CBL0137 50 mg/kg iv Q4d, 4 weeks, vehicle 14.5 days",21.5 days
same,tumor growth inhibition,[5]; Day 11,67.2%
same,T/C %,"[5]; Day 11, size relative to vehicle-treated tumors",33.4%
same,mean change in tumor volume versus Day 1,"[5]; Day 11, vehicle 9.08-fold",2.98 fold
same,antitumor efficacy (in words),[5]; Hep3B study summary,efficacious in suppressing growth of Hep3B engrafts
same,median survival time (MST),"[5]; sorafenib 30 mg/kg po daily, CBL0137 60 mg/kg iv Q4d, 4 weeks, vehicle 11 days",25 days
same,mean change in tumor volume versus Day 1,"[6]; Day 13, vehicle 13.2-fold",3.2 fold
same,antitumor efficacy (in words),[6]; HepG2 (sub-dose CBL0137) study summary,effectively suppressed HepG2 tumor growth
same,tumor growth inhibition,[6]; between Days 1 and 13,76%
same,median time to reach the tumor size endpoint,"[6]; by extrapolation from exponential growth curves, vehicle 12.6 days",29.6 days
same,Tumor growth delay (T−C),[6]; [7],17 days
same,median survival time (MST),"[6]; sorafenib 30 mg/kg po daily, CBL0137 60 mg/kg iv Q4d, 4 weeks, vehicle 13 days",27.5 days
